From patent US20260216383A1, “RADIOLABELED MEDICINE” (National University Corporation Chiba University, priority 2022, published 2026)

Tested on: BBMVs (kidney brush border membrane vesicles)
Assay: Incubation test with BBMVs (kidney brush border membrane vesicles)
Assay type: in vitro ADME, male Wistar rat
Settings: 37° C., two hours
Experimental: Kidney brush border membrane vesicles (BBMVs) were prepared from the kidney of a male Wistar rat (200 to 250 g) in accordance with the method of Hori et al. [Biochemical Pharmacology 45: 1763-1768, 1993]. All the operations were carried out on ice. From four to five times the mass of 300 mM mannitol and a 12 mM tris hydrochloride buffer solution (pH 7.1) containing 5 mM EGTA were added to the cortex, and the mixture was homogenized with a Polytron Homogenizer PT-3100 (manufactured by Kinematica GmgH) for two minutes, and diluted with the same buffer solution, so as to obtain a 10% homogenate. […] The BBMVs thus prepared were evaluated for the incorporation of the lysosome enzyme by measuring the activity of β-galactosidase as a lysosome marker enzyme using p-nitrophenyl-β-D-galacto-pyranoside [Plant Physiology 55: 94-98, 1975]. Further, the activities of γ-glutamyl transferase and aminopeptidase were measured by using L-γ-glutamyl-p-nitroanilide and L-leucine-p-nitroanilide in accordance with the methods of Glossmann et al. [FEBS Letters 19: 340-344, 1972], Kramers et al. [European Journal of Biochemistry 99: 345-351, 1979].
The incubation test of BBMVs and a ^67Ga-labeled low-molecular model substrate was carried out in the following manner. […] The supernatant obtained was analyzed by HPLC at a flow rate of 1 mL/min. using an Imtakt Unison US-C18 150 mm×4.6 mm column. […]

## ^67Ga-NOTA-Phe-Gly-Lys(Bzo) [^67Ga-labeled NOTA-Phe-Gly-Lys(Bzo)]
  amount of radioactive metabolite released by BBMVs, compared with ^67Ga-labeled NOTA-Met-Val-Lys(Bzo): lower than the amount of ^67Ga-labeled-NOTA-Met released from ^67Ga-labeled NOTA-Met-Val-Lys(Bzo)
HPLC of supernatant
  radioactive metabolite peak observed after incubation with BBMVs: A peak of ^67Ga-labeled-NOTA-Phe-Gly was observed, not a peak of ^67Ga-labeled-NOTA-Phe
